Reference: publication PMC10046946, “Novel Phthalic-Based Anticancer Tyrosine Kinase Inhibitors: Design, Synthesis and Biological Activity” (Current Issues in Molecular Biology, 2023)

Legend:
K562 cell line = experiment: ROS determination (DCFH-DA, flow cytometry); format: cell-based; settings: 48 h
Procedure: The redox status was assessed using the K562 cell line. […] Then, the cells were washed to remove the 2′,7′-dichlorodihydrofluorescein diacetate by centrifugation at 1000 rpm for 5 min. The measurements were conducted using a Cytomics FC500 Beckman Coulter flow cytometer (FL1 channel for DCF).

[1] = tested on: RPMI 1788 cells (B lymphocyte, human); experiment: MTT cell proliferation assay, normal RPMI 1788 cells; format: cell-based; settings: normal human lymphoblastoid cells RPMI 1788, 72 h of exposition, read-out: Anti-proliferative activity IC50, RPMI 1788
Procedure: (§1) Tests to determine the effects of the synthesized compounds on cell viability and the half-maximal inhibitory concentration (IC50) were performed using the MTT assay, as described in our prior work.
(§2) The target compounds 5, 6, 8–12, 14, 15, 17–22 and 24–26 were tested for antiproliferative activity against six cancer cell lines: K562 (chronic myelogenous leukemia), HL-60 (promyelocytic leukemia), MCF-7 (breast adenocarcinoma), HepG2 (human liver cancer), A549 (lung carcinoma) and OKP-GS (renal cell carcinoma). The RPMI 1788 cells (B lymphocyte, human) were used as a control to evaluate the system toxicity of the studied compounds to normal cells. Sorafenib, nilotinib and lapatinib were utilized as reference standards for comparison.

K562 cells [2] = experiment: Cell cycle analysis (propidium iodide, flow cytometry); format: cell-based; settings: 48 h
Procedure: Tumor cells were seeded on a 6-well plate at a density of 400,000 per well for K562. Test compounds 5, 14 and 15 were added at concentrations of 1, 5 and 10 μM in duplicate for 48 h. The methodology and analysis of the obtained data were performed as described in our prior work.
As shown above, compounds 5, 14 and 15 had significant antiproliferative activities, which is why their influences on the cell cycle and apoptosis level were determined, with the aim of understanding whether these effects are cytostatic or cytotoxic. In the cell cycle experiments, K562 cells were used. […] For the determination of changes in the distribution of cells in the phases of the cell cycle, the widely employed method of staining the cells with propidium iodide was used.

[3] = tested on: HepG2 (human liver cancer); experiment: MTT cell proliferation assay, HepG2; format: cell-based; settings: Homo sapiens, HepG2, 72 h, HepG2, 72 h of exposition, read-out: Anti-proliferative activity IC50, HepG2
Procedure: as §1, §2

A549 (lung carcinoma) = experiment: MTT cell proliferation assay, A549; format: cell-based; settings: Homo sapiens, A549, 72 h of exposition, read-out: Anti-proliferative activity IC50, A549
Procedure: as §1, §2

[4] = tested on: K562 (chronic myelogenous leukemia); experiment: MTT cell proliferation assay, K562; format: cell-based; settings: Homo sapiens, K562, 72 h of exposition, read-out: Anti-proliferative activity IC50, K562
Procedure: as §1, §2

[5] = tested on: HL-60 (promyelocytic leukemia); experiment: MTT cell proliferation assay, HL-60; format: cell-based; settings: Homo sapiens, HL-60, 72 h of exposition, read-out: Anti-proliferative activity IC50, HL-60
Procedure: as §1, §2

[6] = tested on: MCF-7 (breast adenocarcinoma); experiment: MTT cell proliferation assay, MCF-7; format: cell-based; settings: Homo sapiens, MCF7, MCF-7, 72 h of exposition, read-out: Anti-proliferative activity IC50, MCF-7
Procedure: as §1, §2

K562 cells [7] = experiment: Annexin V-FITC/PI apoptosis assay; format: cell-based; settings: 48 h
Procedure: K562 tumor cells were plated on a 6-well plate at a density of 400,000 per well. Test compounds 5, 14 and 15 were added at concentrations of 1, 5 and 10 μM in duplicate for 48 h. The methodology and analysis of the obtained data were performed as described in our prior work.
The effects of compounds 5, 14 and 15 on cell apoptosis were examined using the Annexin V-FITC Kit (Beckman Coulter, Brea, CA, USA) according to the protocols provided. The Annexin V-FITC Kit is an apoptosis detection kit based on the binding properties of annexin V to phosphatidylserine (PS) and on the DNA intercalating capability of propidium iodide (PI). K562 cells were treated with compound 5, 14 and 15 at 1, 5 and 10 μM for 48 h, after which annexin V/PI binding was measured by flow cytometry.

[8] = tested on: OKP-GS (renal cell carcinoma); experiment: MTT cell proliferation assay, OKP-GS; format: cell-based; settings: 72 h of exposition, read-out: Anti-proliferative activity IC50, OKP-GS
Procedure: as §1, §2

PDGFRβ = biological target: T1, PDGFRβ (Homo sapiens, UniProt P09619); experiment: ADP-Glo kinase assay, PDGFRβ; format: biochemical
T1 construct: purchased Promega
Procedure: (§3) The ADP-Glo kinase assay (Promega, Madison, WI, USA) was used to screen compounds 5, 8–10, 14, 17, 19 and 24 for the tyrosine kinase (Kinase Selectivity Profiling System TK-1, Promega, Madison, WI, USA) and serine/threonine kinase (Kinase Selectivity Profiling System Other/CK-1, Promega, Madison, WI, USA) inhibition effects according to the manufacturer’s technical manual. The luminescence data were analyzed as described in our prior work.
(§4) The selectivity of the potential kinase inhibitor against a specific protein kinase or a specific family of kinases was investigated using the Kinase Selectivity Profiling System TK-1, Other/CK-1 and ADP-Glo™ Kinase assay kit (Promega, Madison, WI, USA).

PDGFRα = biological target: T2, PDGFRα (Homo sapiens, UniProt P16234); experiment: ADP-Glo kinase assay, PDGFRα; format: biochemical
T2 construct: purchased Promega
Procedure: as §3, §4

T2 sequence (P16234 24-1089): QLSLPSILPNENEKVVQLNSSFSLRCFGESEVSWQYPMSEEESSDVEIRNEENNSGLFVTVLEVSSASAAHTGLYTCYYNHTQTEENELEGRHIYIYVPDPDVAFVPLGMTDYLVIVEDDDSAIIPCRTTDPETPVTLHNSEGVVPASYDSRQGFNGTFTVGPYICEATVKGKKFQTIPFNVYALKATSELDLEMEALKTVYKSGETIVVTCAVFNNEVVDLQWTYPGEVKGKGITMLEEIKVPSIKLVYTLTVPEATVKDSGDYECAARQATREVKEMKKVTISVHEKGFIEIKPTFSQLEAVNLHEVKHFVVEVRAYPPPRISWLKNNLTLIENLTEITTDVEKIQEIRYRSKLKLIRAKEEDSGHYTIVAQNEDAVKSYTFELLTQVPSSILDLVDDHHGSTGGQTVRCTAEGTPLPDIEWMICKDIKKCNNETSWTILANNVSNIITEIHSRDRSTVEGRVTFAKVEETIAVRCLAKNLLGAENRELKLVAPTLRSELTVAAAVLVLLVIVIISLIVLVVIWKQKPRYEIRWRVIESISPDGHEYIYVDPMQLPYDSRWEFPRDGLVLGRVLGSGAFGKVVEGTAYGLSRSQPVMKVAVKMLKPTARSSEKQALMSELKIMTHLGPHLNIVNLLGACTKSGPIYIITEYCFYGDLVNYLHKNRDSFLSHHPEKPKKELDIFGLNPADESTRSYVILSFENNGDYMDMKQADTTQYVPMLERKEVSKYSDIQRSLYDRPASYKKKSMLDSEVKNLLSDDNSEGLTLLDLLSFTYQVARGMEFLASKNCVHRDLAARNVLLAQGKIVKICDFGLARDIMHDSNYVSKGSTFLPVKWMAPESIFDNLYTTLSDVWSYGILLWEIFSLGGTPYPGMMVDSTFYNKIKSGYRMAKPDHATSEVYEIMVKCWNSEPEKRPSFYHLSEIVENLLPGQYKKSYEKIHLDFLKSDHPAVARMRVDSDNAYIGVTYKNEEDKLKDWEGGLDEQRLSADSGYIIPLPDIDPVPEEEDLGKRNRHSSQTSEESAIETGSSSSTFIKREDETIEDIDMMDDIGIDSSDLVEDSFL
T1 sequence (P09619 33-1106): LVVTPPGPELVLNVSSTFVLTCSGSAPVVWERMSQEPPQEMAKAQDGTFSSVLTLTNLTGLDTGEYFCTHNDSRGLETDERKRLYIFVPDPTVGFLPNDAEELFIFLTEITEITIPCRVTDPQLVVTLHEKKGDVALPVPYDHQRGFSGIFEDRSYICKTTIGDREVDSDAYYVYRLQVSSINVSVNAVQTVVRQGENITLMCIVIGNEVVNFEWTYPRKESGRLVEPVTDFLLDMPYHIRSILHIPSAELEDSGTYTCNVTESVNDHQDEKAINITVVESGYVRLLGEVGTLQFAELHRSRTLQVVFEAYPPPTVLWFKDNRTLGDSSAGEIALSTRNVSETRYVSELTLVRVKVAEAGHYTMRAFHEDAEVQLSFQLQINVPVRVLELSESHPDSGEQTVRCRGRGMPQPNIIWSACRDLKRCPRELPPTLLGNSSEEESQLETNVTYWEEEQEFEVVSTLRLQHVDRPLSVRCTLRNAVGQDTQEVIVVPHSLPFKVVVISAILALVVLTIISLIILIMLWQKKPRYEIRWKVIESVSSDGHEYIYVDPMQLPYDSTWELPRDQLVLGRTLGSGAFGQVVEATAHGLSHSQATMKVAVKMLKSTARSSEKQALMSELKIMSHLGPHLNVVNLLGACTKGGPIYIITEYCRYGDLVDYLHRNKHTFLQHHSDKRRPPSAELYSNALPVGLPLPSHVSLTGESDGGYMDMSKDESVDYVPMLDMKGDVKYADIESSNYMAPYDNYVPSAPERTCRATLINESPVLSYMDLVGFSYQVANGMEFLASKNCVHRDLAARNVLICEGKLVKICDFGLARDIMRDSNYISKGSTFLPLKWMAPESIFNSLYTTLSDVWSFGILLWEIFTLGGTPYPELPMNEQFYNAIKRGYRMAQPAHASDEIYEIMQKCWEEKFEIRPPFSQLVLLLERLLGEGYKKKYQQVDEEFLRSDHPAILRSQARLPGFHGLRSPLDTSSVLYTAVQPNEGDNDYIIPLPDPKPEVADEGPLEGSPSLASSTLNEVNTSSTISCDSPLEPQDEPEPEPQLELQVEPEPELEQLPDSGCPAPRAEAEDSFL

Row | melting point [°C] | IC50 [3] [µM] | IC50 (A549 (lung carcinoma)) [µM] | IC50 [4] [µM] | IC50 [5] [µM] | IC50 [6] [µM] | IC50 [8] [µM] | Structure (SMILES) | IC50 [1] [µM] | further results
1 | 72 to 74 | – | – | – | – | – | – | COc1ccc(C(=O)N2CCN(C(=O)c3cccc(C(=O)Nc4cccc(C(F)(F)F)c4)c3)CC2)cc1 [Compound 7, 3-(4-(4-Methoxybenzoyl)piperazine-1-carbonyl)-N-(3-(trifluoromethyl)phenyl)benzamide] | – | –
2 | 144 to 146 | – | – | – | – | – | – | COc1ccc(C(=O)N2CCN(C(=O)c3cccc(C(=O)Nc4cc(-n5cnc(C)c5)cc(C(F)(F)F)c4)c3)CC2)cc1 [Compound 13, 3-(4-(4-Methoxybenzoyl)piperazine-1-carbonyl)-N-(3-(4-methyl-1H-imidazol-1-yl)-5-(trifluoromethyl)-phenyl)benzamide] | – | –
3 | 130 to 135 | 45.8 ± 1.76 | > 50 | 10.5 ± 2.54 | 34.8 ± 4.7 | 27.38 ± 0.26 | > 50 | Cc1cn(-c2cc(NC(=O)c3cccc(C(=O)N4CCN(C(=O)c5cccc(F)c5)CC4)c3)cc(C(F)(F)F)c2)cn1 [Compound 15, 3-(4-(3-Fluorobenzoyl)piperazine-1-carbonyl)-N-(3-(4-methyl-1H-imidazol-1-yl)-5-(trifluoromethyl)phenyl)-benzamide] | 29.4 ± 1.79 | ROS Level, % of Control (K562 cell line; K562, 5 µM): 92.89 % of Control; ROS Level, % of Control (K562 cell line; K562, 10 µM): 87.87 % of Control; ROS Level, % of Control (K562 cell line; K562, 20 µM): 94.07 % of Control; Apoptosis, % (cell cycle analysis) (K562 cells [2]; K562, 1 µM): 17.90%; G1, % (K562 cells [2]; K562, 1 µM): 30.15%; G2/M, % (K562 cells [2]; K562, 1 µM): 48.54%; S, % (K562 cells [2]; K562, 1 µM): 21.31%; Apoptosis, % (cell cycle analysis) (K562 cells [2]; K562, 5 µM): 20.54%; G1, % (K562 cells [2]; K562, 5 µM): 34.76%; G2/M, % (K562 cells [2]; K562, 5 µM): 53.65%; S, % (K562 cells [2]; K562, 5 µM): 11.59%; Apoptosis, % (cell cycle analysis) (K562 cells [2]; K562, 10 µM): 32.72%; G1, % (K562 cells [2]; K562, 10 µM): 28.85%; G2/M, % (K562 cells [2]; K562, 10 µM): 62.99%; S, % (K562 cells [2]; K562, 10 µM): 8.16%; normal live cells (living cells) (K562 cells [7]; K562, 1 µM): 74.91%; normal live cells (living cells) (K562 cells [7]; K562, 5 µM): 68.41%; normal live cells (living cells) (K562 cells [7]; K562, 10 µM): 60.97%
4 | – | 45.9 ± 1.83 | > 50 | 26.9 | > 50 | > 50 | 34.4 ± 2.52 | CNC(=O)c1cc(Oc2ccc(NC(=O)c3ccc(C(=O)Nc4cccc(C(F)(F)F)c4)cc3)cc2)ccn1 [Compound 18, N1-(4-((2-(methylcarbamoyl)pyridin-4-yl)oxy)phenyl)-N4-(3-(trifluoromethyl)phenyl)terephthalamide] | 46 ± 1.76 | –
5 | 215 to 217 | > 50 | > 50 | > 50 | > 50 | > 50 | > 50 | O=C(Nc1cccc(C(F)(F)F)c1)c1ccc(C(=O)N2CCN(C(=O)c3ccccc3F)CC2)cc1 [Compound 20, 4-(4-(2-Fluorobenzoyl)piperazine-1-carbonyl)-N-(3-(trifluoromethyl)phenyl)benzamide] | > 50 | –
6 | – | > 50 | > 50 | > 50 | > 50 | > 50 | > 50 | O=C(Nc1cccc(C(F)(F)F)c1)c1ccc(C(=O)N2CCN(C(=O)c3cccc(F)c3)CC2)cc1 [Compound 21, 4-(4-(3-Fluorobenzoyl)piperazine-1-carbonyl)-N-(3-(trifluoromethyl)phenyl)benzamide] | > 50 | –
7 | 295 to 296 | > 50 | > 50 | > 50 | > 50 | > 50 | > 50 | Cc1cn(-c2cc(NC(=O)c3ccc(C(=O)Nc4cc(-n5cnc(C)c5)cc(C(F)(F)F)c4)cc3)cc(C(F)(F)F)c2)cn1 [Compound 22, N1,N4-bis(3-(4-methyl-1H-imidazol-1-yl)-5-(trifluoromethyl)phenyl)terephthalamide] | > 50 | –
8 | 299 to 300 | – | – | – | – | – | – | CNC(=O)c1cc(Oc2ccc(NC(=O)c3ccc(C(=O)Nc4cc(-n5cnc(C)c5)cc(C(F)(F)F)c4)cc3)cc2)ccn1 [Compound 23, N1-(3-(4-methyl-1H-imidazol-1-yl)-5-(trifluoromethyl)phenyl)-N4-(4-((2-(methylcarbamoyl)pyridin-4-yl)oxy)phenyl)terephthalamide] | – | –
9 | 212 to 214 | – | – | – | – | – | – | COc1ccc(C(=O)N2CCN(C(=O)c3ccc(C(=O)Nc4cc(-n5cnc(C)c5)cc(C(F)(F)F)c4)cc3)CC2)cc1 [Compound 25, 4-(4-(4-methoxybenzoyl)piperazine-1-carbonyl)-N-(3-(4-methyl-1H-imidazol-1-yl)-5-(trifluoromethyl)-phenyl)benzamide] | – | –
10 | 142 to 145 | 44.3 ± 4.79 | > 50 | 18.5 ± 0.73 | 26.4 ± 1.73 | 48.8 ± 1.17 | > 50 | Cc1cn(-c2cc(NC(=O)c3ccc(C(=O)N4CCN(C(=O)c5ccccc5F)CC4)cc3)cc(C(F)(F)F)c2)cn1 [Compound 26, 4-(4-(2-fluorobenzoyl)piperazine-1-carbonyl)-N-(3-(4-methyl-1H-imidazol-1-yl)-5-(trifluoromethyl)phenyl)-benzamide] | 23.97 ± 0.03 | –
11 | 110 to 113 | 38.6 ± 1.11 | > 50 | 22.2 ± 2.12 | 26 ± 4.15 | 49.4 ± 0.67 | > 50 | Cc1cn(-c2cc(NC(=O)c3ccc(C(=O)N4CCN(C(=O)c5cccc(F)c5)CC4)cc3)cc(C(F)(F)F)c2)cn1 [Compound 27, 4-(4-(3-fluorobenzoyl)piperazine-1-carbonyl)-N-(3-(4-methyl-1H-imidazol-1-yl)-5-(trifluoromethyl)phenyl)-benzamide] | 24.08 ± 0.07 | –

Row | Structure (SMILES) | melting point [°C] | IC50 [3] [µM] | IC50 (A549 (lung carcinoma)) [µM] | IC50 [4] [µM] | IC50 [5] [µM] | IC50 [6] [µM] | IC50 [8] [µM] | IC50 [1] [µM] | further results
12 | CNC(=O)c1cc(Oc2ccc(NC(=O)Nc3ccc(Cl)c(C(F)(F)F)c3)cc2)ccn1 [Sorafenib, reference compound] | – | 5.01 ± 0.14 | 12.5 ± 1.64 | 2.44 ± 0.21 | 3.37 ± 0.42 | 8.62 ± 2.24 | 7.17 ± 0.5 | 3.48 ± 0.39 | inhibition at 10 µM (PDGFRβ): 100%; ROS Level, % of Control (K562 cell line; K562, 5 µM): 69.20 % of Control; ROS Level, % of Control (K562 cell line; K562, 10 µM): 79.03 % of Control; ROS Level, % of Control (K562 cell line; K562, 20 µM): 71.59 % of Control; Apoptosis, % (cell cycle analysis) (K562 cells [2]; K562, 1 µM): 22.60%; G1, % (K562 cells [2]; K562, 1 µM): 36.50%; S, % (K562 cells [2]; K562, 1 µM): 7.72%; Apoptosis, % (cell cycle analysis) (K562 cells [2]; K562, 5 µM): 44.20%; G1, % (K562 cells [2]; K562, 5 µM): 33.87%; S, % (K562 cells [2]; K562, 5 µM): 30.14%; inhibition at 10 µM (PDGFRα): 100%; normal live cells (living cells) (K562 cells [7]; K562, 1 µM): 84.11%; early apoptotic cells (K562 cells [7]; K562, 5 µM): 36.2%; late apoptotic cells (K562 cells [7]; K562, 5 µM): 19.57%; normal live cells (living cells) (K562 cells [7]; K562, 5 µM): 42.32%; necrotic cells (K562 cells [7]; K562, 10 µM): 5.73%; normal live cells (living cells) (K562 cells [7]; K562, 10 µM): 26.41%
